Measured values published in patent US11987648B2, “Cyclohexapeptides as selective somatostatin SST5 receptor agonists” (Heptares Therapeutics Limited, priority 2018, dated 2024).
*1 amine or outer side, *2 acyl side, *3 side chain or, on linkers, in order; H or OH if unused. Where a SMILES comes first, the peptide text is derived from it. Side-chain parts run from the residue outwards. [ ]: non-standard residue; d: D form. The star is where a group is joined. Ala(piperidin-4-yl) = O=C([C@H](CC1CCN([*:3])CC1)N[*:1])[*:2]; dTrp(4-OMe) = COc1cccc2[nH]cc(C[C@@H](N)C(=O)O)c12; dTrp(5-OMe) = COc1ccc2[nH]cc(C[C@@H](N)C(=O)O)c2c1; Ala(piperazin-1-yl) = N[C@@H](CN1CCNCC1)C(=O)O; Phe(3-Cl) = N[C@@H](Cc1cccc(Cl)c1)C(=O)O; Phe(4-Cl) = N[C@@H](Cc1ccc(Cl)cc1)C(=O)O; Morpholine(3S-CO) = O=C(O)[C@@H]1COCCN1; Ethylenediamine = C(CN[*:2])N[*:1]; d(hPhe) = N[C@H](CCc1ccccc1)C(=O)O; Hyp = O=C(O)[C@@H]1C[C@@H](O)CN1; hPhe = N[C@@H](CCc1ccccc1)C(=O)O; 3Pal = N[C@@H](Cc1cccnc1)C(=O)O; Cyclohexylmethyl = C1CCC(C*)CC1; Tic = O=C(O)[C@@H]1Cc2ccccc2CN1; Benzyl(4-Cl) = Clc1ccc(C*)cc1; X6 = Clc1cccc(Cl)c1C*; CO = O=C([*:1])[*:2]; Bn = c1ccc(C*)cc1; X1 = C1CCC(C*)C1; X4 = C1CC(C*)C1

Experiments:
[1] = biological target: SST2 (Homo sapiens, UniProt P30874); assay: Hit Hunter cAMP XS+ assay, SST2 activation via Gi (reduction of forskolin-stimulated cAMP); assay type: cell-based; conditions: for Emax: read-out: SST2 (EMax); for EC50: reduction of forskolin-stimulated cAMP, 4-parameter logistic fit, read-out: SST2 pEC50 (converted)
Method: (§1) A Hit Hunter® cAMP XS+ assay was used to monitor activation of the SST2 and SST5 via the Gi G protein. Cells were pre-stimulated with forskolin to elicit a cAMP response and the potency and efficacy of somatostatin agonists to reduce cAMP was measured. Briefly cells (10,000 cells/well) were incubated (37° C.; 30 min) with compound ([…]) in media (2:1 HBSS/11 mM Hepes: cAMP XS+Ab reagent) in the presence of EC80 forskolin ([…] and 15 μM SST5). Signal was detected through incubation with 20 μL cAMP XS+ED/CL lysis cocktail ([…]; RT) followed by incubation with […] cAMP XS+EA reagent (180 min; RT). Microplates were read with a PerkinElmer Envision™ instrument for chemiluminescent signal detection.

[2] = biological target: SST5 (Homo sapiens, UniProt P35346); assay: Hit Hunter cAMP XS+ assay, SST5 activation via Gi (reduction of forskolin-stimulated cAMP); assay type: cell-based; conditions: for Emax: read-out: SST5 (EMax); for EC50: reduction of forskolin-stimulated cAMP, 4-parameter logistic fit, read-out: SST5 pEC50 (converted); for SST5/2 Selectivity: selectivity for SST5 over SST2
Method: as §1

SST2, sequence (P30874 whole entry): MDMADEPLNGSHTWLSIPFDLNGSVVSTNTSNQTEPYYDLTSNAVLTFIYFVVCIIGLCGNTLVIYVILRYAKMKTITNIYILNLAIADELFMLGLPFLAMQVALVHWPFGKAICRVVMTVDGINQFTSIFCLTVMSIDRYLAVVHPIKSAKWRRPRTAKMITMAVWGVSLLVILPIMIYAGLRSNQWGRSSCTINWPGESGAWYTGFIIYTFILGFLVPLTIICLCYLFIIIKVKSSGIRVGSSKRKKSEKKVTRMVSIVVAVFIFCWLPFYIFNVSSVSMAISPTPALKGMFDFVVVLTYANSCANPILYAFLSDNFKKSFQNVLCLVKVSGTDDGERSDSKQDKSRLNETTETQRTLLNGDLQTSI
SST5, sequence (P35346 whole entry): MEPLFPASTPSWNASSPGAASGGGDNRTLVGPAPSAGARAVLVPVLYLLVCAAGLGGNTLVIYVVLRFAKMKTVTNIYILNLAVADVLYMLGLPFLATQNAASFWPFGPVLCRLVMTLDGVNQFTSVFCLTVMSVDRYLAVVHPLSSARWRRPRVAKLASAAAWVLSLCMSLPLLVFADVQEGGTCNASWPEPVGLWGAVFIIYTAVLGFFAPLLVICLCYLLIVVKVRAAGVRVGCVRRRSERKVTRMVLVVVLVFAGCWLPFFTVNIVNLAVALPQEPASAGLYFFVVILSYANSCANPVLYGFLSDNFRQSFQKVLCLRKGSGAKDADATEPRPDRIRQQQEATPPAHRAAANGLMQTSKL

Row | Structure (SMILES) | Emax [1] | EC50 [1] | Emax [2] | EC50 [2] | SST5/2 Selectivity [2]
1 | NCCNC(=O)O[C@@H]1C[C@H]2C(=O)N[C@H](CCc3ccccc3)C(=O)N[C@H](Cc3c[nH]c4ccccc34)C(=O)N[C@@H](CC3CCNCC3)C(=O)N[C@@H](Cc3ccc(OCc4ccccc4)cc3)C(=O)N[C@@H](Cc3ccccc3)C(=O)N2C1 [Example 38] (cyclo(F[Hyp]([CO-Ethylenediamine])[d(hPhe)][dW][Ala(piperidin-4-yl)]Y(Bn))) | 82.7% | 2510 nM | 103% | 12.6 nM | 171.5
2 | COc1ccc2[nH]cc(C[C@H]3NC(=O)[C@H](CCc4ccccc4)NC(=O)[C@@H]4C[C@@H](OC(=O)NCCN)CN4C(=O)[C@H](Cc4cccnc4)NC(=O)[C@H](Cc4ccc(OCc5ccccc5)cc4)NC(=O)[C@H](CC4CCNCC4)NC3=O)c2c1 [Example 39] (cyclo([3Pal][Hyp]([CO-Ethylenediamine])[hPhe][dTrp(5-OMe)][Ala(piperidin-4-yl)]Y(Bn))) | 100% | 398 nM | 107% | 0.398 nM | 1104.6
3 | NCCNC(=O)O[C@@H]1C[C@H]2C(=O)N[C@@H](CCc3ccccc3)C(=O)N[C@H](Cc3c[nH]c4ccccc34)C(=O)N[C@@H](CC3CCNCC3)C(=O)N[C@@H](Cc3ccc(OCc4ccc(Cl)cc4)cc3)C(=O)N[C@@H](Cc3cccnc3)C(=O)N2C1 [Example 40] (cyclo([3Pal][Hyp]([CO-Ethylenediamine])[hPhe][dW][Ala(piperidin-4-yl)]Y(Benzyl(4-Cl)))) | 91.2% | 316 nM | 106% | 2.51 nM | 126.6
4 | NCCNC(=O)O[C@@H]1C[C@H]2C(=O)N[C@@H](CCc3ccccc3)C(=O)N[C@H](Cc3c[nH]c4ccccc34)C(=O)N[C@@H](CC3CCNCC3)C(=O)N[C@@H](Cc3ccc(OCc4ccccc4)cc3)C(=O)N[C@@H](Cc3cccc(Cl)c3)C(=O)N2C1 [Example 41] (cyclo([Hyp]([CO-Ethylenediamine])[hPhe][dW][Ala(piperidin-4-yl)]Y(Bn)[Phe(3-Cl)])) | 102% | 7.94 nM | 104% | 0.158 nM | 51.0
5 | NCCNC(=O)O[C@@H]1C[C@H]2C(=O)N[C@@H](CCc3ccccc3)C(=O)N[C@H](Cc3c[nH]c4ccccc34)C(=O)N[C@@H](CC3CCNCC3)C(=O)N[C@@H](Cc3ccc(OCc4ccccc4)cc3)C(=O)N[C@@H](Cc3ccc(Cl)cc3)C(=O)N2C1 [Example 42] (cyclo([Hyp]([CO-Ethylenediamine])[hPhe][dW][Ala(piperidin-4-yl)]Y(Bn)[Phe(4-Cl)])) | 99.3% | 12.6 nM | 104% | 0.251 nM | 45.1
6 | COc1ccc(C[C@@H]2NC(=O)[C@H](Cc3ccc(OCc4ccccc4)cc3)NC(=O)[C@H](CC3CCNCC3)NC(=O)[C@@H](Cc3c[nH]c4ccccc34)NC(=O)[C@H](CCc3ccccc3)NC(=O)[C@@H]3C[C@@H](OC(=O)NCCN)CN3C2=O)cc1 [Example 43] (cyclo([Hyp]([CO-Ethylenediamine])[hPhe][dW][Ala(piperidin-4-yl)]Y(Bn)Y(Me))) | 101% | 31.6 nM | 107% | 0.316 nM | 94.3
7 | NCCNC(=O)O[C@@H]1C[C@H]2C(=O)N[C@@H](CCc3ccccc3)C(=O)N[C@H](Cc3c[nH]c4ccccc34)C(=O)N[C@@H](CC3CCNCC3)C(=O)N[C@@H](Cc3ccc(OCC4CCCCC4)cc3)C(=O)N3Cc4ccccc4C[C@H]3C(=O)N2C1 [Example 44] (cyclo([Hyp]([CO-Ethylenediamine])[hPhe][dW][Ala(piperidin-4-yl)]Y(Cyclohexylmethyl)[Tic])) | 75.3% | 794 nM | 105% | 1 nM | 823.8
8 | O=C1N[C@@H](Cc2ccc(OCc3ccccc3)cc2)C(=O)N2Cc3ccccc3C[C@H]2C(=O)N2CCOC[C@H]2C(=O)N[C@@H](CCc2ccccc2)C(=O)N[C@H](Cc2c[nH]c3ccccc23)C(=O)N[C@H]1CC1CCNCC1 [Example 45] (cyclo([Tic][Morpholine(3S-CO)][hPhe][dW][Ala(piperidin-4-yl)]Y(Bn))) | 100% | 158 nM | 100% | 0.398 nM | 430.7
9 | COc1cccc2[nH]cc(C[C@H]3NC(=O)[C@H](CCc4ccccc4)NC(=O)[C@@H]4COCCN4C(=O)[C@@H]4Cc5ccccc5CN4C(=O)[C@H](Cc4ccc(OCc5ccccc5)cc4)NC(=O)[C@H](CC4CCNCC4)NC3=O)c12 [Example 46] (cyclo([Tic][Morpholine(3S-CO)][hPhe][dTrp(4-OMe)][Ala(piperidin-4-yl)]Y(Bn))) | 98.6% | 39.8 nM | 102% | 0.0794 nM | 527.6
10 | NCCNC(=O)O[C@@H]1C[C@H]2C(=O)N[C@@H](CCc3ccccc3)C(=O)N[C@H](Cc3c[nH]c4ccccc34)C(=O)N[C@@H](CC3CCNCC3)C(=O)N[C@@H](Cc3ccc(OCc4c(Cl)cccc4Cl)cc3)C(=O)N[C@@H](Cc3cccnc3)C(=O)N2C1 [Example 47] (cyclo([3Pal][Hyp]([CO-Ethylenediamine])[hPhe][dW][Ala(piperidin-4-yl)]Y(X6))) | 100% | 200 nM | 108% | 0.794 nM | 226.4
11 | NCCNC(=O)O[C@@H]1C[C@H]2C(=O)N[C@@H](CCc3ccccc3)C(=O)N[C@H](Cc3c[nH]c4ccccc34)C(=O)N[C@@H](CN3CCNCC3)C(=O)N[C@@H](Cc3ccc(OCc4ccccc4)cc3)C(=O)N[C@@H](Cc3cccc(Cl)c3)C(=O)N2C1 [Example 48] (cyclo([Hyp]([CO-Ethylenediamine])[hPhe][dW][Ala(piperazin-1-yl)]Y(Bn)[Phe(3-Cl)])) | 100% | 2 nM | 103% | 0.02 nM | 106.6
12 | NCCNC(=O)O[C@@H]1C[C@H]2C(=O)N[C@@H](CCc3ccccc3)C(=O)N[C@H](Cc3c[nH]c4ccccc34)C(=O)N[C@@H](CC3CCNCC3)C(=O)N[C@@H](Cc3ccc(OCC4CCCC4)cc3)C(=O)N[C@@H](Cc3cccnc3)C(=O)N2C1 [Example 49] (cyclo([3Pal][Hyp]([CO-Ethylenediamine])[hPhe][dW][Ala(piperidin-4-yl)]Y(X1))) | 98.9% | 501 nM | 103% | 3.16 nM | 143.3
13 | NCCNC(=O)O[C@@H]1C[C@H]2C(=O)N[C@@H](CCc3ccccc3)C(=O)N[C@H](Cc3c[nH]c4ccccc34)C(=O)N[C@@H](CC3CCNCC3)C(=O)N[C@@H](Cc3ccc(OCC4CCC4)cc3)C(=O)N[C@@H](Cc3cccnc3)C(=O)N2C1 [Example 50] (cyclo([3Pal][Hyp]([CO-Ethylenediamine])[hPhe][dW][Ala(piperidin-4-yl)]Y(X4))) | 95.4% | 631 nM | 103% | 15.8 nM | 41.1
14 | NCCNC(=O)O[C@@H]1C[C@H]2C(=O)N[C@@H](CCc3ccccc3)C(=O)N[C@H](Cc3c[nH]c4ccccc34)C(=O)N[C@@H](CN3CCNCC3)C(=O)N[C@@H](Cc3ccc(OCc4ccccc4)cc3)C(=O)N[C@@H](Cc3ccc(Cl)cc3)C(=O)N2C1 [Example 51] (cyclo([Hyp]([CO-Ethylenediamine])[hPhe][dW][Ala(piperazin-1-yl)]Y(Bn)[Phe(4-Cl)])) | 100% | 5.01 nM | 106% | 0.0794 nM | 64.3
15 | NCCNC(=O)O[C@@H]1C[C@H]2C(=O)N[C@@H](CCc3ccccc3)C(=O)N[C@H](Cc3c[nH]c4ccccc34)C(=O)N[C@@H](CN3CCNCC3)C(=O)N[C@@H](Cc3ccc(OCC4CCCCC4)cc3)C(=O)N[C@@H](Cc3cccnc3)C(=O)N2C1 [Example 52] (cyclo([3Pal][Hyp]([CO-Ethylenediamine])[hPhe][dW][Ala(piperazin-1-yl)]Y(Cyclohexylmethyl))) | 96.8% | 398 nM | 107% | 0.158 nM | 2108.2
16 | NCCNC(=O)O[C@@H]1C[C@H]2C(=O)N[C@H](CCc3ccccc3)C(=O)N[C@H](Cc3c[nH]c4ccccc34)C(=O)N[C@@H](CC3CCNCC3)C(=O)N[C@@H](Cc3ccc(OCC4CCCCC4)cc3)C(=O)N[C@@H](Cc3cccnc3)C(=O)N2C1 [Example 53] (cyclo([3Pal][Hyp]([CO-Ethylenediamine])[d(hPhe)][dW][Ala(piperidin-4-yl)]Y(Cyclohexylmethyl))) | 50.9% | > 10000 nM | 103% | 31.6 nM | 293.1
17 | NCCNC(=O)O[C@@H]1C[C@H]2C(=O)N[C@@H](CCc3ccccc3)C(=O)N[C@H](Cc3c[nH]c4ccccc34)C(=O)N[C@@H](CC3CCNCC3)C(=O)N[C@@H](Cc3ccc(OCC4CCCCC4)cc3)C(=O)N[C@@H](Cc3cccnc3)C(=O)N2C1 [Example 54] (cyclo([3Pal][Hyp]([CO-Ethylenediamine])[hPhe][dW][Ala(piperidin-4-yl)]Y(Cyclohexylmethyl))) | 96.2% | 631 nM | 104% | 0.501 nM | 1083.5
